Reference: patent publication US9249180B2, “C-3 alkyl and alkenyl modified betulinic acid derivatives” (priority 2013, dated 2016)

The compounds below were run on recombinant NL4-3 virus (Renilla luciferase in nef, Gag P373S; NLRluc) in MT-2 cells (assay: HIV Cell Culture Assay (luciferase reporter, antiviral activity)). Details: Renilla, NL43, MT-2 cells infected for 4-5 days with NLRluc recombinants, serial dilutions of the inhibitor.
Type: cell-based
Procedure: HIV Cell Culture Assay—MT-2 cells and 293T cells were obtained from the NIH AIDS Research and Reference Reagent Program. MT-2 cells were propagated in RPMI 1640 media supplemented with 10% heat inactivated fetal bovine serum, […]. The 293T cells were propagated in DMEM media supplemented with 10% heat inactivated fetal bovine serum (FBS), 100 units/ml penicillin G and 100 μg/ml streptomycin. The proviral DNA clone of NL4-3 was obtained from the NIH AIDS Research and Reference Reagent Program. A recombinant NL4-3 virus, in which a section of the nef gene from NL4-3 was replaced with the Renilla luciferase gene, was used as a reference virus. In addition, residue Gag P373 was converted to P373S. Briefly, the recombinant virus was prepared by transfection of the altered proviral clone of NL4-3. Transfections were performed in 293T cells using LipofectAMINE PLUS from Invitrogen (Carlsbad, Calif.), according to manufacturer's instruction. The virus was titered in MT-2 cells using luciferase enzyme activity as a marker. Luciferase was quantitated using the Dual Luciferase kit from Promega (Madison, Wis.), with modifications to the manufacturer's protocol. The diluted Passive Lysis solution was pre-mixed with the re-suspended Luciferase Assay Reagent and the re-suspended Stop & Glo Substrate (2:1:1 ratio). Fifty (50) μL of the mixture was added to each aspirated well on assay plates and luciferase activity was measured immediately on a Wallac TriLux (Perkin-Elmer). Antiviral activities of inhibitors toward the recombinant virus were quantified by measuring luciferase activity in cells infected for 4-5 days with NLRluc recombinants in the presence serial dilutions of the inhibitor.

SMILES	EC50
C=C(C)[C@@H]1CC[C@]2(NCCN3CCC(S(C)(=O)=O)CC3)CC[C@]3(C)[C@H](CC[C@@H]4[C@@]5(C)CC=C(C=C6CC(C(=O)O)C6)C(C)(C)[C@@H]5CC[C@]43C)[C@@H]12 (stereo partly drawn) [Example B4, 3-(((1R,3aS,5aR,5bR,7aR,11aS,11bR,13aR,13bR)-5a,5b,8,8,11a-pentamethyl-3a-((2-(4-(methylsulfonyl)piperidin-1-yl)ethyl)amino)-1-(prop-1-en-2-yl)-2,3,3a,4,5,5a,5b,6,7,7a,8,11,11a,11b,12,13,13a,13b-octadecahydro-1H-cyclopenta[a]chrysen-9-yl)methylene)cyclobutanecarboxylic acid]	0.6 nM
CC(C)[C@@H]1CC[C@]2(NCCN3CCS(=O)(=O)CC3)CC[C@]3(C)[C@H](CC[C@@H]4[C@@]5(C)CCC(CCCCC(=O)O)C(C)(C)[C@@H]5CC[C@]43C)[C@@H]12 (stereo partly drawn) [Example 16, 5-((1S,3aS,5aR,5bR,7aS,11aS,11bR,13aR,13bR)-3a-((2-(1,1-dioxidothiomorpholino)ethyl)amino)-1-isopropyl-5a,5b,8,8,11a-pentamethylicosahydro-1H-cyclopenta[a]chrysen-9-yl)pentanoic acid]	1 nM
C=C(C)[C@@H]1CC[C@]2(NCCN3CCS(=O)(=O)CC3)CC[C@]3(C)[C@H](CC[C@@H]4[C@@]5(C)CC=C(CCCC(=O)O)C(C)(C)[C@@H]5CC[C@]43C)[C@@H]12 [Example 11, 4-((1R,3aS,5aR,5bR,7aR,11aS,11bR,13aR,13bR)-3a-((2-(1,1-dioxidothiomorpholino)ethyl)amino)-5a,5b,8,8,11a-pentamethyl-1-(prop-1-en-2-yl)-2,3,3a,4,5,5a,5b,6,7,7a,8,11,11a,11b,12,13,13a,13b-octadecahydro-1H-cyclopenta[a]chrysen-9-yl)butanoic acid]	10 nM
C=C(C)[C@@H]1CC[C@]2(C(=O)O)CC[C@]3(C)[C@H](CC[C@@H]4[C@@]5(C)CC=C(CCC(=O)O)C(C)(C)[C@@H]5CC[C@]43C)[C@@H]12 [Example 19, (1R,3aS,5aR,5bR,7aR,11aS,13aR,13bR)-9-(2-carboxyethyl)-5a,5b,8,8,11a-pentamethyl-1-(prop-1-en-2-yl)-2,3,3a,4,5,5a,5b,6,7,7a,8,11,11a,11b,12,13,13a,13b-octadecahydro-1H-cyclopenta[a]chrysene-3a-carboxylic acid]	470 nM
C=C(C)[C@@H]1CC[C@]2(NCCN3CCS(=O)(=O)CC3)CC[C@]3(C)[C@H](CC[C@@H]4[C@@]5(C)CC=C(/C=C/c6ccc(C(=O)O)cc6)C(C)(C)[C@@H]5CC[C@]43C)[C@@H]12 [Example B1, 4-((E)-2-((1R,3aS,5aR,5bR,7aR,11aS,11bR,13aR,13bR)-3a-((2-(1,1-dioxidothiomorpholino)ethyl)amino)-5a,5b,8,8,11a-pentamethyl-1-(prop-1-en-2-yl)-2,3,3a,4,5,5a,5b,6,7,7a,8,11,11a,11b,12,13,13a,13b-octadecahydro-1H-cyclopenta[a]chrysen-9-yl)vinyl)benzoic acid]	10 nM
C=C(C)[C@@H]1CC[C@]2(NCCN3CCS(=O)(=O)CC3)CC[C@]3(C)[C@H](CC[C@@H]4[C@@]5(C)CC=C(CCC(C)(C)CC(=O)NO)C(C)(C)[C@@H]5CC[C@]43C)[C@@H]12 [Example 12, 5-((1R,3aS,5aR,5bR,7aR,11aS,11bR,13aR,13bR)-3a-((2-(1,1-dioxidothiomorpholino)ethyl)amino)-5a,5b,8,8,11a-pentamethyl-1-(prop-1-en-2-yl)-2,3,3a,4,5,5a,5b,6,7,7a,8,11,11a,11b,12,13,13a,13b-octadecahydro-1H-cyclopenta[a]chrysen-9-yl)-N-hydroxy-3,3-dimethylpentanamide]	2 nM
CC(C)[C@@H]1CC[C@]2(NCCN3CCS(=O)(=O)CC3)CC[C@]3(C)[C@H](CC[C@@H]4[C@@]5(C)CCC(CCCC(C)(C)C(=O)O)C(C)(C)[C@@H]5CC[C@]43C)[C@@H]12 (stereo partly drawn) [Example 17, 5-((1S,3aS,5aR,5bR,7aS,11aS,11bR,13aR,13bR)-3a-((2-(1,1-dioxidothiomorpholino)ethyl)amino)-1-isopropyl-5a,5b,8,8,11a-pentamethylicosahydro-1H-cyclopenta[a]chrysen-9-yl)-2,2-dimethylpentanoic acid]	7.3 nM
C=C(C)[C@@H]1CC[C@]2(NCCN3CCS(=O)(=O)CC3)CC[C@]3(C)[C@H](CC[C@@H]4[C@@]5(C)CC=C(CCC(C)(C)CC(=O)NOC)C(C)(C)[C@@H]5CC[C@]43C)[C@@H]12 [Example 13, 5-((1R,3aS,5aR,5bR,7aR,11aS,11bR,13aR,13bR)-3a-((2-(1,1-dioxidothiomorpholino)ethyl)amino)-5a,5b,8,8,11a-pentamethyl-1-(prop-1-en-2-yl)-2,3,3a,4,5,5a,5b,6,7,7a,8,11,11a,11b,12,13,13a,13b-octadecahydro-1H-cyclopenta[a]chrysen-9-yl)-N-methoxy-3,3-dimethylpentanamide]	30 nM
C=C(C)[C@@H]1CC[C@]2(NCCN3CCS(=O)(=O)CC3)CC[C@]3(C)[C@H](CC[C@@H]4[C@@]5(C)CC=C(CCCCCC(=O)O)C(C)(C)[C@@H]5CC[C@]43C)[C@@H]12 [Example 10, 6-((1R,3aS,5aR,5bR,7aR,11aS,11bR,13aR,13bR)-3a-((2-(1,1-dioxidothiomorpholino)ethyl)amino)-5a,5b,8,8,11a-pentamethyl-1-(prop-1-en-2-yl)-2,3,3a,4,5,5a,5b,6,7,7a,8,11,11a,11b,12,13,13a,13b-octadecahydro-1H-cyclopenta[a]chrysen-9-yl)hexanoic acid]	3.1 nM
C=C(C)[C@@H]1CC[C@]2(NCCN3CCS(=O)(=O)CC3)CC[C@]3(C)[C@H](CC[C@@H]4[C@@]5(C)CC=C(CCCCC(=O)O)C(C)(C)[C@@H]5CC[C@]43C)[C@@H]12 [Example 4, 5-((1R,3aS,5aR,5bR,7aR,11aS,11bR,13aR,13bR)-3a-((2-(1,1-dioxidothiomorpholino)ethyl)amino)-5a,5b,8,8,11a-pentamethyl-1-(prop-1-en-2-yl)-2,3,3a,4,5,5a,5b,6,7,7a,8,11,11a,11b,12,13,13a,13b-octadecahydro-1H-cyclopenta[a]chrysen-9-yl)pentanoic acid]	2.27 nM
